Test results as given in US7146278B2, “Method of selecting marker molecules for prediction of molecular activity” (Accelrys Software Inc., priority 2001, dated 2006).
Where two headings read alike, the source gives them in different places.

Tests used:
serum proteins [1] = details: cited from earlier work; for % PB: marker molecules, training set from Goodman & Gilman 9th ed.
[2] = nephrotic syndrome, serum albumin concentrations halved; cited from earlier work
serum proteins [3] = test: Percent protein bound in serum (literature % PB data); details: binary class: highly protein bound (DTC) or not
Source text: Drugs may bind to a variety of components in the blood, including albumin, a1-acid glyciprotein (AAG), lipoproteins, immunoglobulins, sex hormone binding globulins, and erythrocytes. […] Some foreknowledge of the protein binding characteristics of a molecule would help provide a better estimate of the pharmacodynamics and pharmacokinetics of the molecule. […] In addition, hepatic extraction is directly proportional to fu. […] The maximum oral bioavailability is directly related to the hepatic extraction ratio, which is in part dependent upon the fu. Disease states causing significant drop in serum albumin, e.g. nephrotic syndrome, where serum albumin concentrations are halved, cause a corresponding 2-fold decrease in half-life for clofibrate.
Using the principles of predictive model development described herein, a model for classifying compounds as highly protein bound (>90% bound) or not highly protein bound (<90% bound) was created. The model development methods are thus described below using a protein binding model as one example application. The model development methods of the invention may also be applied to the creation of other prediction models, such as models to predict CYP450 metabolism, inhibition, and activation, as well as p-Glycoprotein efflux.
The method next advances to the process block 14 where a reference (“training”) set of molecules is classified according to the property of interest. The larger the training set of molecules is (>50 preferably), the better the method should perform. Preferably each of the molecules in the training set has a known binary classification for the property of interest. […] For illustration, an example training set of ten molecules for a protein binding prediction model may be as follows:
The method next advances to a process block 16, where a subset of the training set of molecules is chosen such that the subset includes the molecules in the training set that have the desired property of interest. In one embodiment, molecules in this subset are referred to as Desired Target Class (“DTC”) molecules.
The above simplified example includes 10 training dataset molecules. […] The following compounds were excluded because they lacked % PB values or belonged to an unusual structural class: atracurium, auranofin, azathioprine, bleomycin, bretylium, busulfan, capreomycin, carboplatin, carmustine, cisplatin, clemastine, dobutamine, enoxacin, ethanol, foscarnet, gold sodium thiomalate, isosorbide-5-mononitrate, isosorbide dinitrate, levodopa, levonorgestrel, methohexital, methylprednisolone, nalbuphine, naloxone, neostigmine, nitroglycerin, pancuronium, pipecuronium, prednisolone, prednisone, pyridostigmine, scopolamine, tubocurarine, vecuronium.
A test dataset was also assembled to verify model performance.

[4] = biological target: Human serum albumin (HSA) (Homo sapiens, UniProt P02768); details: site I warfarin site, site II benzodiazepines/NSAIDS site; cited from earlier work
Human serum albumin (HSA), sequence (P02768 25-609): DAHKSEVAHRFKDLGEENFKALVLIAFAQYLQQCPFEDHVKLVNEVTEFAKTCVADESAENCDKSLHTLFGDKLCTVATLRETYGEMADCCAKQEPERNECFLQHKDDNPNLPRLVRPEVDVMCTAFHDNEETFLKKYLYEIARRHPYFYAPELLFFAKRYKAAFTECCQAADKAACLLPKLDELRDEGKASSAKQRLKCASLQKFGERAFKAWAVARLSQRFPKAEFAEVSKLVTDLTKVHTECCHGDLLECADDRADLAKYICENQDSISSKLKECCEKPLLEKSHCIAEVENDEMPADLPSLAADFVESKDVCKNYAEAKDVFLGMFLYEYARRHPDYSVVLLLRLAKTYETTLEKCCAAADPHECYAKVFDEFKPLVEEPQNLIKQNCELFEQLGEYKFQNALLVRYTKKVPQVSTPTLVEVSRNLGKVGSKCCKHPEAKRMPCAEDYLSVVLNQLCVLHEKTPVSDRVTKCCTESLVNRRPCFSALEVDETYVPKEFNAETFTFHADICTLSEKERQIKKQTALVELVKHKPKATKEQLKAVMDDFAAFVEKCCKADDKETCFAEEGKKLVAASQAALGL

[5] = example training set of ten molecules
[6] = training set (Goodman & Gilman) or PDR test set

Compound	% PB (serum proteins [1]) [%]	further results
CC1=C(CC(=O)O)c2cc(F)ccc2/C1=C\c1ccc([S+](C)[O-])cc1 (stereo not shown)	94	
CCOC(=O)C1=C(COCCN)NC(C)=C(C(=O)OC)C1c1ccccc1Cl (stereo not shown) [AMLODIPINE]	93	
CCOC(=O)[C@H](CCc1ccccc1)N[C@H]1CCc2ccccc2N(CC(=O)O)C1=O [BENAZEPRIL]	97	
CCCCNc1cc(C(=O)O)cc(S(N)(=O)=O)c1Oc1ccccc1 [BUMETANIDE]	99	
CCOC(=O)C(C)(C)Oc1ccc(Cl)cc1 [CLOFIBRATE]	96.5	decrease in half-life [2]: 2 fold
Clc1cccc(Cl)c1N=C1NCCN1 [CLONIDINE]		Classification (serum proteins [3]): 0 (not highly protein bound (<90% bound)); % Protein Bound (serum proteins [1]; [5]): 30.0%
O=C(O)C1N=C(c2ccccc2)c2cc(Cl)ccc2NC1=O (stereo not shown) [CLORAZEPATE]	96.9	
CN1C(=O)CN=C(c2ccccc2)c2cc(Cl)ccc21 [DIAZEPAM]		Classification (serum proteins [3]): 1 (highly protein bound (>90% bound))
O=C(O)c1cc(-c2ccc(F)cc2F)ccc1O [DIFLUNISAL]	99.9	
CCc1cccc2c3c([nH]c12)C(CC)(CC(=O)O)OCC3 (stereo not shown) [ETODOLAC]	99.1	
CCOC(=O)C1=C(C)NC(C)=C(C(=O)OC)C1c1cccc(Cl)c1Cl (stereo not shown) [FELODIPINE]	99.6	
CCN(CC)CCN1C(=O)CN=C(c2ccccc2F)c2cc(Cl)ccc21 [FLURAZEPAM]	96.6	
CC(C(=O)O)c1ccc(-c2ccccc2)c(F)c1 (stereo not shown) [FLURBIPROFEN]	99.5	Classification (serum proteins [3]): 1 (highly protein bound (>90% bound)); % Protein Bound (serum proteins [1]; [5]): 99.5%
NS(=O)(=O)c1cc(C(=O)O)c(NCc2ccco2)cc1Cl [FUROSEMIDE]	98.8	
Cc1cnc(C(=O)NCCc2ccc(S(=O)(=O)NC(=O)NC3CCCCC3)cc2)cn1 [GLIPIZIDE]	98.4	
COc1ccc(Cl)cc1C(=O)NCCc1ccc(S(=O)(=O)NC(=O)NC2CCCCC2)cc1 [GLYBURIDE]	99.8	
NS(=O)(=O)c1cc2c(cc1Cl)NCNS2(=O)=O [HYDROCHLOROTHIAZIDE]		Classification (serum proteins [3]): 0 (not highly protein bound (<90% bound)); % Protein Bound (serum proteins [1]; [5]): 58.0%
CN(C)CCCN1c2ccccc2CCc2ccccc21 [IMIPRAMINE]	90.1	
COC(=O)C1=C(C)NC(C)=C(C(=O)OC(C)C)C1c1cccc2nonc12 (stereo not shown) [ISRADIPINE]	97	
CCC(C)n1ncn(-c2ccc(N3CCN(c4ccc(OCC5COC(Cn6cncn6)(c6ccc(Cl)cc6Cl)O5)cc4)CC3)cc2)c1=O (stereo not shown) [ITRACONAZOLE]	99.8	
CC(=O)N1CCN(c2ccc(OCC3COC(Cn4ccnc4)(c4ccc(Cl)cc4Cl)O3)cc2)CC1 (stereo not shown) [KETOCONAZOLE]	99	
O=C(c1ccccc1)c1ccc2n1CCC2C(=O)O (stereo not shown) [KETOROLAC]	99.2	
NCCCC[C@H](N[C@@H](CCc1ccccc1)C(=O)O)C(=O)N1CCC[C@H]1C(=O)O [LISINOPRIL]		Classification (serum proteins [3]): 0 (not highly protein bound (<90% bound))
O=C1Nc2ccc(Cl)cc2C(c2ccccc2Cl)=NC1O (stereo not shown) [LORAZEPAM]	91	

Compound	% PB (serum proteins [1]) [%]	further results
CN(C)c1ccc(O)c2c1C[C@H]1C[C@H]3[C@H](N(C)C)C(O)=C(C(N)=O)C(=O)[C@@]3(O)C(O)=C1C2=O [MINOCYCLINE]		Classification (serum proteins [3]): 0 (not highly protein bound (<90% bound)); % Protein Bound (serum proteins [1]; [5]): 76.0%
COc1ccc2cc(CCC(C)=O)ccc2c1 [NABUMETONE]	99	
COc1ccc2cc([C@H](C)C(=O)O)ccc2c1 [NAPROXEN]		Classification (serum proteins [3]): 1 (highly protein bound (>90% bound))
COC(=O)C1=C(C)NC(C)=C(C(=O)OCCN(C)Cc2ccccc2)C1c1cccc([N+](=O)[O-])c1 (stereo not shown) [NICARDIPINE]	99	
COCCOC(=O)C1=C(C)NC(C)=C(C(=O)OC(C)C)C1c1cccc([N+](=O)[O-])c1 (stereo not shown) [NIMODIPINE]	98	
CCOC(=O)C1=C(C)NC(C)=C(C(=O)OC)C1c1cccc([N+](=O)[O-])c1 (stereo not shown) [NITRENDIPINE]	98	
O=C1CN=C(c2ccccc2)c2cc(Cl)ccc2N1 [NORDAZEPAM]	97.5	
O=C1Nc2ccc(Cl)cc2C(c2ccccc2)=NC1O (stereo not shown) [OXAZEPAM]	98.8	
Fc1ccc([C@@H]2CCNC[C@H]2COc2ccc3c(c2)OCO3)cc1 [PAROXETINE]	95	% Protein Bound (serum proteins [1]; [6]): 95%
O=c1[nH]c2ccccc2n1C1CCN(CCCC(c2ccc(F)cc2)c2ccc(F)cc2)CC1 [PIMOZIDE]	99	
CN1C(C(=O)Nc2ccccn2)=C(O)c2ccccc2S1(=O)=O [PIROXICAM]	98.5	
O=C1CN=C(c2ccccc2)c2cc(Cl)ccc2N1CC1CC1 [PRAZEPAM]	95.5	
CNCCCC1c2ccccc2C=Cc2ccccc21 [PROTRIPTYLINE]	92	
CCc1nc(N)nc(N)c1-c1ccc(Cl)cc1 [PYRIMETHAMINE]		Classification (serum proteins [3]): 0 (not highly protein bound (<90% bound)); % Protein Bound (serum proteins [1]; [5]): 87.0%; % Protein Bound (serum proteins [1]; [6]): 87%
CC(N)C12CC3CC(CC(C3)C1)C2 (stereo not shown) [RIMANTADINE]		Classification (serum proteins [3]): 0 (not highly protein bound (<90% bound)); % Protein Bound (serum proteins [1]; [5]): 40.0%
CC(C(=O)O)c1ccc(C(=O)c2cccs2)cc1 (stereo not shown) [Suprofen]		HSA binding site [4]: binds to HSA site II
CN1C(=O)C(O)N=C(c2ccccc2)c2cc(Cl)ccc21 (stereo not shown) [TEMAZEPAM]	97.6	
Cc1ccc(C(=O)c2ccc(CC(=O)O)n2C)cc1 [TOLMETIN]	99.6	
O=c1n(CCCN2CCN(c3cccc(Cl)c3)CC2)nc2ccccn12 [TRAZODONE]	93	
CCCC(CCC)C(=O)O [Valproic acid]		HSA binding site [4]: bind to both HSA Sites I and II
CC(=O)CC(c1ccccc1)c1c(O)c2ccccc2oc1=O (stereo not shown) [WARFARIN]		Classification (serum proteins [3]): 1 (highly protein bound (>90% bound))
Cc1ccc(-c2nc3ccc(C)cn3c2CC(=O)N(C)C)cc1 [ZOLPIDEM]	92	
COC(=O)[C@H](c1ccccc1Cl)N1CCc2sccc2C1 [clopidogrel]		% Protein Bound (serum proteins [1]; [6]): 98%
COC(=O)C(C)c1ccc(C(=O)c2cccs2)cc1 (stereo not shown) [suprofen methyl ester]		HSA binding site [4]: binds to HSA site I
